Values after ≈ are worked out from the molar mass of the structure shown.

The target in the first data set is T1, Relaxin-3 receptor 1 (Homo sapiens, UniProt Q9NSD7).
T1 sequence (Q9NSD7 whole entry): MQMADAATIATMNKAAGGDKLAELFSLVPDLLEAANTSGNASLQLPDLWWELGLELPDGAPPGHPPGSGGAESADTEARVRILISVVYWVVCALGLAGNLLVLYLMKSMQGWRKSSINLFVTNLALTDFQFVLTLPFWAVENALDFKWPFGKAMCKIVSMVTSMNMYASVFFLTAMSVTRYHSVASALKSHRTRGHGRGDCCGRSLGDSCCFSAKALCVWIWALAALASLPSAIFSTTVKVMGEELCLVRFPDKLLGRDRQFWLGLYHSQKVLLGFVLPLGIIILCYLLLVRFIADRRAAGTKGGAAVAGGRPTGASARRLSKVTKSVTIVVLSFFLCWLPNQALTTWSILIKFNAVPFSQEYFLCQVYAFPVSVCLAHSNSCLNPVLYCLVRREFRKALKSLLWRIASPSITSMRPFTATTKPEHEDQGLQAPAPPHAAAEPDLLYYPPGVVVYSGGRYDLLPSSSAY
Test: not given
Details: not given
Broadly, the EC50 is the midpoint of the concentration-response curve. Molecule `COc1cc(C)c2[nH]cc(/C=N/NC(=N)NCCc3ccc(I)cc3)c2c1` displayed an EC50 of 67 nM. In other words, the double-digit nanomolar range. The same measure, in the same setting: under `COc1cc(C)c2[nH]cc(/C=N/NC(=N)NCc3ccc(Cl)cc3)c2c1` stands 3950 nM. The molecule `COC(=O)c1ccc(CCNC(=N)N/N=C/c2c[nH]c3c(C)cc(OC)cc23)cc1` yielded an EC50 of 7.7 nM. In turn, `COc1ccc(CCNC(=N)N/N=C/c2c[nH]c3c(C)cc(OC)cc23)cc1` displayed an EC50 of 56.1 nM. The molecule `CCc1cc(OC)cc2c(/C=N/NC(=N)NCCc3ccc(Cl)cc3)c[nH]c12` gave a 50% effective concentration (EC50) of 19.5 nM. The same measure, in the same setting: the value for `N=C(NCCc1ccc(Cl)cc1)N/N=C/c1c[nH]c2ccc([N+](=O)[O-])cc12` was 317 nM; that for `N=C(NCCc1ccc(Cl)cc1)N/N=C/c1c[nH]c2c(F)cccc12` was 2790 nM.

`N=C(NCCc1ccc(Cl)cc1)N/N=C/c1c[nH]c2ccc(F)cc12` showed an EC50 of 1360 nM. `COc1cc(C)c2[nH]cc(/C=N/NC(=N)NCCc3ccccn3)c2c1` showed an EC50 of 855 nM. The same measure, in the same setting: the value for `Cc1cc(C#N)cc2c(/C=N/NC(=N)NCCc3ccc(Cl)cc3)c[nH]c12` was 82.3 nM. The same measure, in the same setting: under `CCc1cc(OC)cc2c(/C=N/NC(=N)NCCc3cccnc3)c[nH]c12` stands 2.3 nM; under `COc1cc(C)c2[nH]cc(/C=N/NC(=N)NCCCc3ccc(Cl)cc3)c2c1`, 1660 nM. On the same count and under the same terms, the value for `N=C(NCCc1ccc(Cl)cc1)N/N=C/c1c[nH]c2cccc(F)c12` was 3210 nM.

As to `N=C(NCCc1ccc(Cl)cc1)N/N=C/c1c[nH]c2cc(F)ccc12`, the EC50 is 3470 nM. This EC50 and that of the molecule before are within 1.5-fold of each other.

`COc1ccc2[nH]cc(/C(C)=N/NC(=N)NCCc3ccc(Cl)cc3)c2c1` showed an EC50 of 7690 nM. Turning to `COc1cc(C)c2[nH]cc(/C=N/NC(=N)NCCc3ccc(C#N)cc3)c2c1`, the EC50 was found to be 13.2 nM. This EC50 lies about 580-fold lower than the previous one. Regarding `N#Cc1ccc2[nH]cc(/C=N/NC(=N)NCCc3ccc(Cl)cc3)c2c1`, the 50% effective concentration (EC50) stood at 253 nM. With `Cc1ccc2c(/C=N/NC(=N)NCCc3ccc(Cl)cc3)c[nH]c2c1`, the EC50 is 7440 nM.

Molecule `N=C(NCCc1ccc(Cl)cc1)N/N=C/c1c[nH]c2ccccc12` returned an EC50 of 6940 nM. In turn, `COc1cc(C)c2[nH]cc(/C=N/NC(=N)NCCc3ccc([N+](=O)[O-])cc3)c2c1` yielded a concentration for a half-maximal effect (EC50) of 13.6 nM. Same read-out and setting: under `COc1cc(C)c2[nH]cc(/C=N/NC(=N)NCCc3ccc(Br)cc3)c2c1` stands 69.9 nM; under `COc1cc(C)c2[nH]cc(/C=N/NC(=N)NCCc3ccc(N(C)C)cc3)c2c1`, 98.4 nM.

`Cc1cccc2c(/C=N/NC(=N)NCCc3ccc(Cl)cc3)c[nH]c12` showed an EC50 of 647 nM. This EC50 lies about 6.6-fold higher than the previous one.

The molecule `COc1cc(C)c2[nH]cc(/C=N/NC(=N)NCCc3ccccc3)c2c1` came in with an EC50 of 224 nM. This EC50 lies about 2.9-fold lower than the previous one. For the molecule `COc1cc(C)c2[nH]cc(/C=N/NC(=N)Nc3ccc(Cl)cc3)c2c1`, the EC50 amounted to 3120 nM. `CCc1cc(OC)cc2c(/C=N/NC(=N)NCCc3ccc(F)cc3)c[nH]c12` came in with an EC50 of 5.6 nM. This EC50 is about 560-fold lower than that of the molecule before.

Consider `N=C(NCCc1ccc(Cl)cc1)N/N=C/c1c[nH]c2ccc(Cl)cc12`, for which the half-maximal effective concentration (EC50) came to 2820 nM.

`COc1cc(C)c2[nH]cc(/C=N/NC(=N)NCCc3ccc(Cl)cc3)c2c1` displayed an EC50 of 74.7 nM. Take `COc1ccc2c(/C=N/NC(=N)NCCc3ccc(Cl)cc3)c[nH]c2c1`: the EC50 worked out at 4750 nM.

The next data set deals with Relaxin-3 receptor 2 (Homo sapiens, UniProt Q8TDU9).
Chain of Relaxin-3 receptor 2 (Q8TDU9 whole entry): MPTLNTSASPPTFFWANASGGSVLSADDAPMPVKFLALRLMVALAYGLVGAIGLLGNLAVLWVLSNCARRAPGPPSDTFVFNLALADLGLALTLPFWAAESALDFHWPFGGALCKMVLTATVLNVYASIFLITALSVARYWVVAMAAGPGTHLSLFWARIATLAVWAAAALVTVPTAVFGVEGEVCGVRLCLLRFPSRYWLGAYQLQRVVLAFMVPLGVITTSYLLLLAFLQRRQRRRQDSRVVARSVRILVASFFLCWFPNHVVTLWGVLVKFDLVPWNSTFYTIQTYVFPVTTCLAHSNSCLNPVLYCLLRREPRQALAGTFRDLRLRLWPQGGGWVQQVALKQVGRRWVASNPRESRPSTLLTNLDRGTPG
Test: not given
Details: not given
Molecule `CCc1cc(O)cc2c(/C=N/NC(=N)NCCc3ccc(Cl)cc3)c[nH]c12` yielded an EC50 of 0.8 nM. Molecule `COC(=O)c1ccc(CCNC(=N)N/N=C/c2c[nH]c3c(C)cc(OC)cc23)cc1` had an EC50 of 3.4 nM. As to `COC(=O)c1ccc(CCNC(=N)N/N=C/c2c[nH]c3c(C)cc(C#N)cc23)cc1`, the concentration giving a half-maximal response (EC50) was 2.7 nM. The molecule `CCc1cc(C#N)cc2c(/C=N/NC(=N)NCCc3cccnc3)c[nH]c12` gave an EC50 of 0.9 nM. `CCc1cc(OC)cc2c(/C=N/NC(=N)NCCc3cccnc3)c[nH]c12` yielded an EC50 of 1.1 nM. This EC50 and that of the molecule before are within 1.5-fold of each other. `CCc1cc(OC)cc2c(/C=N/NC(=N)NCCc3ccc(C#N)cc3)c[nH]c12`: the EC50 was 1.8 nM. The same measure, in the same setting: under `CCc1cc(OC)cc2c(/C=N/NC(=N)NCCc3ccc(F)cc3)c[nH]c12` stands 4 nM.

Test system in another data set: not listed separately
The data set can be described thus: physchem. To be noted: buffer, pH 7.4.
In general, kinetic solubility refers to solubility judged after dilution from a stock solution rather than from solid. `CCc1cc(OC)cc2c(/C=N/NC(=N)NCCc3cccnc3)c[nH]c12` showed a solubility (kinetic) at 2 h of 74.6 µM (≈ 27.2 µg/mL). For `CCc1cc(OC)cc2c(/C=N/NC(=N)NCCc3ccc(F)cc3)c[nH]c12`, the kinetic solubility at 2 h turned out to be 19.5 µM (≈ 7.44 µg/mL).

For a further data set, the target named is T1, Relaxin-3 receptor 1. The data set can be described thus: biochemical.
Details: not given
Broadly, the Ki is a dissociation constant, usually derived from enzyme kinetics or from competition with a known ligand. Read a low Ki as tighter binding. For the molecule `COc1cc(C)c2[nH]cc(/C=N/NC(=N)NCCc3ccc(C#N)cc3)c2c1`, affinity was put at a Ki of 268 nM. In other words, the sub-micromolar range.

The record behind these values is ChEMBL document CHEMBL5032539, “Indole-Containing Amidinohydrazones as Nonpeptide, Dual RXFP3/4 Agonists: Synthesis, Structure-Activity Relationship, and Molecular Modeling Studies” (J Med Chem, 2021).
